Experimental findings from ChEMBL document CHEMBL1158024, “Terpenoids of Syzygium formosanum” (J Nat Prod, 1999) are described below.

This experiment is described as follows: Inhibition of moloney murine leukemia virus reverse transcriptase.

Molecule `C=C(C)[C@@H]1CC[C@]2(C(=O)O)CC[C@]3(C)[C@H](CC[C@@H]4[C@@]5(C)CC[C@H](O)C(C)(C)[C@@H]5CC[C@]43C)[C@@H]12` [BETULINIC ACID] had a concentration for a half-maximal effect (EC50) of 1.4 µM.
